Test results from US20060069132A1, “Azolecarboxamide herbicides” (priority 2004, published 2006).

Experiments:
[1] = system: yellow nutsedge; assay: Test C pre-/postemergence herbicide test; type: in vivo, Cyperus esculentus; conditions: for Nutsedge, Yellow plant response rating: 500 g ai/ha
Outline: (§1)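 Visual ratings on a 0–100 scale (100 = complete control) made versus untreated controls after 12 to 14 greenhouse days. Test chemicals, formulated in surfactant-containing non-phytotoxic solvent, applied preemergence to planted seeds or postemergence to 1- to 4-leaf plants (2 to 18 cm).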

[2] = system: pigweed; assay: Test C pre-/postemergence herbicide test; type: in vivo, Amaranthus retroflexus; conditions: for Pigweed plant response rating: 500 g ai/ha
Outline: as §1

[3] = system: barnyardgrass; assay: Test C flooded paddy test; type: in vivo, Echinochloa crus-galli
Outline: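 Weeds and wheat were sprayed after emergence, at a height of 2 to 18 cm (1–4 leaves), and paddy barnyardgrass was flooded and treated at two leaves. Assessment took place 12–14 days later in the greenhouse on a 0-to-100 visual control scale. A dash means no result was obtained.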

[4] = system: kochia; assay: Test C pre-/postemergence herbicide test; type: in vivo, Kochia scoparia; conditions: for Kochia plant response rating: 500 g ai/ha
Outline: as §1

[5] = system: corn; assay: Test C pre-/postemergence herbicide test; type: in vivo, Zea mays; conditions: for Corn plant response rating: 500 g ai/ha
Outline: as §1

[6] = system: velvetleaf; assay: Test A pre-/postemergence herbicide test; type: in vivo, Abutilon theophrasti
Outline: (§2)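 Visual injury scores on a 0–100 scale (100 = complete control) taken about ten days post-treatment in greenhouse against untreated controls; dash means no result. Treatments: preemergence soil spray and postemergence spray to runoff on one- to two-leaf plants 2 to 10 cm tall, surfactant-containing formulation.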

[7] = system: goosegrass; assay: Test C pre-/postemergence herbicide test; type: in vivo, Eleusine indica; conditions: for Goosegrass plant response rating: 500 g ai/ha
Outline: as §1

[8] = system: smallflower umbrella sedge; assay: Test C flooded paddy test; type: in vivo, Cyperus difformis
[9] = system: lambsquarters; assay: Test C pre-/postemergence herbicide test; type: in vivo, Chenopodium album
Outline: as §1

[10] = system: soybean; assay: Test C pre-/postemergence herbicide test; type: in vivo, Glycine max; conditions: for Soybean plant response rating: 500 g ai/ha
Outline: as §1

[11] = system: woolly cupgrass; assay: Test C pre-/postemergence herbicide test; type: in vivo, Eriochloa villosa; conditions: for Cupgrass, Woolly plant response rating: 500 g ai/ha
Outline: as §1

[12] = system: giant foxtail; assay: Test A pre-/postemergence herbicide test; type: in vivo, Setaria faberi
Outline: as §2

[13] = system: morningglory; assay: Test C pre-/postemergence herbicide test; type: in vivo, Ipomoea coccinea; parameters: key to Plant response rating, Morningglory: 0 = no effect, 100 = complete control; conditions: for Morningglory plant response rating: 500 g ai/ha
Outline: as §1

[14] = system: Surinam grass; assay: Test C pre-/postemergence herbicide test; type: in vivo, Urochloa decumbens; conditions: for Surinam Grass plant response rating: 500 g ai/ha
Outline: as §1

[15] = 125 g ai/ha, scale 0 (no effect) to 100 (complete control), visual, 12 to 14 days, preemergence
[16] = Postemergence, 250 g ai/ha, scale 0 to 100, 0 no effect, 100 complete control
[17] = Preemergence, scale 0 to 100, 0 no effect, 100 complete control
[18] = postemergence, 125 g ai/ha, scale 0 to 100
[19] = postemergence, 62 g ai/ha, scale 0 to 100
[20] = 62 g ai/ha, scale 0 to 100 (0 no effect, 100 complete control)
[21] = 125 g ai/ha, scale of 0 to 100, 0 is no effect, 100 is complete control
[22] = 250 g ai/ha, scale of 0 to 100, 0 is no effect, 100 is complete control
[23] = 500 g ai/ha, visual rating after 12 to 14 days, scale 0 to 100 (0 no effect, 100 complete control)
[24] = 250 g ai/ha, scale 0 to 100 (0 no effect, 100 complete control), visual, 12 to 14 days, preemergence
[25] = Postemergence, 500 g ai/ha, 0 to 100 scale, 0 no effect, 100 complete control
[26] = Postemergence, 2000 g ai/ha, 0 to 100 scale, 0 no effect, 100 complete control
[27] = Preemergence, 500 g ai/ha, visual rating, 0 to 100 scale (0 no effect, 100 complete control)

Compound: CCOC(=O)c1cc(NC(=O)c2cc(C(C)(C)C)nn2CC)ccc1OC [Compound 96]
- Plant response rating (0 = no effect, 100 = complete control), Nutsedge, Yellow ([1]; 62 g ai/ha, preemergence): 0
- Plant response rating, Nutsedge, Yellow [1, 15]: 0
- Nutsedge, Yellow plant response rating ([1]; Postemergence, scale 0 to 100): 5
- Plant response rating, Nutsedge, Yellow [1, 16]: 5
- Nutsedge, Yellow plant response rating [1, 17]: 10
- Plant response rating, Nutsedge, Yellow [1, 18]: 0
- Plant response rating, Nutsedge, Yellow [1, 19]: 0
- Plant response rating (0 = no effect, 100 = complete control), Pigweed ([2]; 62 g ai/ha, preemergence): 100
- Plant response rating, Pigweed [2, 15]: 100
- Pigweed plant response rating ([2]; Postemergence, scale 0 to 100): 100
- Plant response rating, Pigweed [2, 16]: 100
- Pigweed plant response rating [2, 17]: 100
- Plant response rating, Pigweed [2, 18]: 100
- Plant response rating, Pigweed [2, 19]: 70
- Barnyardgrass plant response rating [3, 20]: 45
- Barnyardgrass plant response rating [3, 21]: 45
- Barnyardgrass plant response rating [3, 22]: 70
- Plant response rating, Barnyardgrass [3, 23]: 80
- Plant response rating (0 = no effect, 100 = complete control), Kochia ([4]; 62 g ai/ha, preemergence): 90
- Plant response rating, Kochia [4, 15]: 95
- Kochia plant response rating ([4]; Postemergence, scale 0 to 100): 90
- Plant response rating, Kochia [4, 16]: 85
- Kochia plant response rating [4, 17]: 100
- Plant response rating, Kochia [4, 18]: 80
- Plant response rating, Kochia [4, 19]: 80
- Plant response rating (0 = no effect, 100 = complete control), Corn ([5]; 62 g ai/ha, preemergence): 15
- Plant response rating, Corn [5, 15]: 15
- Plant response rating, Corn [5, 24]: 30
- Corn plant response rating ([5]; Postemergence, scale 0 to 100): 45
- Plant response rating, Corn [5, 16]: 35
- Corn plant response rating [5, 17]: 40
- Plant response rating, Corn [5, 18]: 30
- Plant response rating, Corn [5, 19]: 30
- Velvetleaf plant response rating [6, 25]: 70
- Plant response rating, Velvetleaf [6, 26]: 70
- Velvetleaf plant response rating [6, 27]: 95
- Velvetleaf plant response rating ([6]; Preemergence, 2000 g ai/ha, visual rating, 0 to 100 scale (0 no effect, 100 complete control)): 100
- Plant response rating (0 = no effect, 100 = complete control), Goosegrass ([7]; 62 g ai/ha, preemergence): 30
- Plant response rating, Goosegrass [7, 15]: 80
- Goosegrass plant response rating ([7]; Postemergence, scale 0 to 100): 5
- Plant response rating, Goosegrass [7, 16]: 5
- Goosegrass plant response rating [7, 17]: 95
- Plant response rating, Goosegrass [7, 18]: 5
- Plant response rating, Goosegrass [7, 19]: 5
- Sedge, Umbrella plant response rating [8, 20]: 90
- Sedge, Umbrella plant response rating [8, 21]: 90
- Sedge, Umbrella plant response rating [8, 22]: 90
- Plant response rating, Sedge, Umbrella [8, 23]: 95
- Lambsquarters plant response rating ([9]; Postemergence, 500 g ai/ha, scale 0 to 100): 100
- Plant response rating, Lambsquarters [9, 16]: 95
- Plant response rating, Lambsquarters [9, 18]: 80
- Plant response rating, Lambsquarters [9, 19]: 60
- Plant response rating (0 = no effect, 100 = complete control), Soybean ([10]; 62 g ai/ha, preemergence): 0
- Plant response rating, Soybean [10, 15]: 5
- Soybean plant response rating ([10]; Postemergence, scale 0 to 100): 100
- Plant response rating, Soybean [10, 16]: 100
- Soybean plant response rating [10, 17]: 50
- Plant response rating, Soybean [10, 18]: 100
- Plant response rating, Soybean [10, 19]: 100
- Plant response rating (0 = no effect, 100 = complete control), Cupgrass, Woolly ([11]; 62 g ai/ha, preemergence): 5
- Plant response rating, Cupgrass, Woolly [11, 15]: 10
- Plant response rating, Cupgrass, Woolly [11, 24]: 20
- Cupgrass, Woolly plant response rating ([11]; Postemergence, scale 0 to 100): 50
- Plant response rating, Cupgrass, Woolly [11, 16]: 30
- Cupgrass, Woolly plant response rating [11, 17]: 70
- Plant response rating, Cupgrass, Woolly [11, 18]: 30
- Plant response rating, Cupgrass, Woolly [11, 19]: 5
- Foxtail, Giant plant response rating [12, 25]: 60
- Plant response rating, Foxtail, Giant [12, 26]: 80
- Foxtail, Giant plant response rating [12, 27]: 75
- Foxtail, Giant plant response rating ([12]; Preemergence, 2000 g ai/ha, 0 to 100 scale, 0 no effect, 100 complete control): 95
- Plant response rating (0 = no effect, 100 = complete control), Morningglory ([13]; 62 g ai/ha, preemergence): 0
- Plant response rating, Morningglory [13, 15]: 50
- Morningglory plant response rating ([13]; Postemergence, scale 0 to 100): 50
- Plant response rating, Morningglory [13, 16]: 30
- Morningglory plant response rating [13, 17]: 100
- Plant response rating, Morningglory [13, 18]: 5
- Plant response rating, Morningglory [13, 19]: 0
- Plant response rating (0 = no effect, 100 = complete control), Surinam Grass ([14]; 62 g ai/ha, preemergence): 0
- Plant response rating, Surinam Grass [14, 15]: 10
- Surinam Grass plant response rating ([14]; Postemergence, scale 0 to 100): 60
- Plant response rating, Surinam Grass [14, 16]: 40
- Surinam Grass plant response rating [14, 17]: 65
- Plant response rating, Surinam Grass [14, 18]: 40
- Plant response rating, Surinam Grass [14, 19]: 0
